Data as given in patent US20070238762A1, “Use of Antagonists of Hepatic Sympathetic Nerve Activity” (DiaMedica Inc., priority 2003, published 2007).

Assays:
Sprague Dawley rats [1] = assay: Rapid insulin sensitivity test (RIST) following 24 hour fast; type: in vivo, rat; conditions: male rats fasted 24 hours; constant i.v. infusion of phentolamine; FIG. 3
Text: HISS-dependent and HISS-independent insulin action can be most readily quantitated using the rapid insulin sensitivity test (RIST) which is a transient euglycemic clamp in response to a bolus administration of insulin. […] The RIST method uses variable glucose infusion rates to maintain the blood glucose level constant. The amount of glucose required to be administered in order to maintain the glycemic baseline is the index of insulin sensitivity and is referred to as the RIST index. The RIST index produced by this procedure consists of a HISS-dependent component and a HISS-independent component that can be readily differentiated by testing in the control fed state and then repeating the test after blockade of HISS release by any of a number of means including surgical denervation of the liver, blockade of hepatic muscarinic receptors, blockade of hepatic nitric oxide production, or blockade of hepatic cyclooxygenase. […] Blockade of HISS release results in HDIR. […] In order to determine whether HISS played a role in controlling glycogenolysis in response to acute trauma, fully anesthetized, fed, male, Sprague Dawley rats were prepared surgically according to the standard animal preparation used to conduct a rapid insulin sensitivity test (RIST) (Lautt et al., 1998). […] Blood was then withdrawn at a rate of 0.5 ml/min to decrease arterial pressure to 50 mm Hg. […]

Sprague Dawley rats [2] = assay: Rapid insulin sensitivity test (RIST) following 18 hour fast; type: in vivo, rat; conditions: male rats fasted 18 hours; bolus 600 μg/kg ipv phentolamine; FIG. 4
Procedure: Blockade of HISS release results in HDIR.
Male, Sprague Dawley rats were fed normal rat pellets and then fasted for a 18-hour period (with free access to water) prior to administration of pentobarbital sodium anesthesia and standard RIST methodology surgical preparation as described in Example One.
Following fasting, the animals were administered a bolus dose of 600 μg/kg ipv of phentolamine or a bolus dose of 600 μg/kg ipv of phentolamine and 5 μg/kg ipv of arecoline.

Cc1ccc(N(CC2=NCCN2)c2cccc(O)c2)cc1 [phentolamine]
insulin action (RIST) (Sprague Dawley rats [1]): significantly restored toward normal levels | insulin action (RIST) (Sprague Dawley rats [2]): restoration of insulin action
